SMILES strings stand for the structures.

`O=C(CBr)c1cc(-c2cccc(C(F)(F)F)c2)nc(C(F)(F)F)c1` gave a melting point of 87 to 89 °C.
Take `COCCCOc1cc(CC(CC(NC(=O)OC(C)(C)C)C2CC(C)C(=O)O2)C(C)C)ccc1OC` (stereo not drawn): the melting point lay in the range of 86 to 87 °C.
`Cc1c(C(=O)Nc2ccc(N3CCN(CCO)CC3)c(C#N)c2)cnn1-c1cccc(Cl)c1` returned a melting point of 176 to 177 °C.
`CN(Cc1cccc2c1CN(C1CCC(=O)NC1=O)C2=O)C(=O)CCNC(=O)OC(C)(C)C` (stereo not drawn) gave a melting point of 222 to 224 °C.
`CC(=O)NCC=C1CCc2ccc3nc(C)oc3c21` displayed a melting point of 188 to 190 °C.
Compound `CCOC(=O)c1nc(N)sc1-c1cn2ccc(C)cc2n1` gave a melting point of 278 to 280 °C.
Consider `O=C(c1cnc2ccccc2c1)C1CCN(C(=O)c2ccccc2)CC1`, for which the melting point came to 170 °C.
Take `CCc1cc(Br)c2c(=O)oc(=O)[nH]c2c1`: the melting point lay within 236 to 237 °C.
`C#CCOc1cc(C(=O)O)cc([N+](=O)[O-])c1C(=O)c1ccccc1`: the melting point was in the range of 169 to 172 °C.
Regarding `CCNC(=O)NC(CC)c1ccc(Cl)c2nc3n(c12)CCCN3c1ccc(Cl)cc1Cl` (stereo not drawn), the melting point lay in the range of 250 to 252 °C.
For `Fc1ccc(-c2ccc(-c3cc(N4CCNCC4)nnc3C(F)(F)F)cc2)cc1`, the melting point was found to be 162 °C.
The figure for `c1ccc(CSc2ncccc2C2=NOCC2)cc1` is 97 to 98 °C.
With `COc1ccccc1-c1ncc(-c2nnn[nH]2)c(=O)[nH]1`, the melting point fell in the range of 282 to 283 °C.
On to `CCn1cc(C(=O)NCc2ccc(Cl)cc2)c(=O)c2cc(CO)sc21`, for which the melting point lay within 169 to 172 °C.
`CCn1ncc2c1ncc1c(N)nc3cc(C)nn3c12` gave a melting point of 248 to 250 °C.
Turning to `COC12CC(C)(C)C(O1)C(O)C=C2C` (stereo not drawn), the melting point is 52 to 54 °C.
For `COc1cc2c(=O)n(CCCc3ccccc3)c3cc(OC)c(OC)cc3c2cc1OC`, the melting point fell in the range of 209 to 211 °C.
For the compound `N#CC1=C(C#N)N=CCC=N1`, the melting point fell in the range of 189 to 190 °C.
Regarding `CCCCc1nc(C(C)(C)O)c(C(=O)OCc2oc(=O)oc2C)n1Cc1ccc(-c2ccccc2C(=O)O)cc1`, the melting point is more than 70 °C.
`O=C(Nc1ccccc1)Nc1ccnc(F)c1` had a melting point of 179 to 180 °C.
Under `CC(CN1CCN(c2ccc(F)cc2)CC1)CN1c2cccc3cccc(c23)S1(=O)=O` (stereo not drawn) stands 133 °C; under `CC(=O)NC1(c2ccccc2Cl)CCC=CC1=O` (stereo not drawn), 144 to 145 °C; under `O=Cc1c[nH]c2c1ccc1c3cccc(F)c3[nH]c12`, more than 250 °C.
`CC1(C)CC(OC(=O)c2ccccc2)CC(C)(C)N1OP(=O)(c1ccccc1)c1ccccc1`: the melting point was in the range of 169 to 173 °C.
For `O=C(NCCc1ccccc1Cl)C1CCCCC1`, the melting point lay within 93.5 to 93.9 °C.
Compound `O=[N+]([O-])c1cc(-c2nc(-c3ccco3)no2)ccc1Cl` gave a melting point of 136 to 138 °C.
As for `COc1ccc(C2(C#Cc3cccc(NC(C)=O)c3)CCCC(=O)C2)cc1OC1CCCC1` (stereo not drawn), the melting point lay in the range of 58 to 60 °C.
Take `CNC(=O)c1cc2c(Oc3ccc(C4=NCCN4)cc3)cncc2s1`: the melting point is more than 280 °C.
As for `COC(=O)C(Cl)=Cc1cc(-n2ncc(C(F)(F)F)cc2=O)ccc1Cl`, the melting point fell in the range of 140 to 141 °C.
On to `Cc1cc(=O)c2ccc(OCCCCl)cc2o1`, for which the melting point was 113 to 115 °C.
As to `CC(C)(C)c1cc(CCc2ccccc2NC(=O)Nc2ccccc2)cc(C(C)(C)C)c1O`, the melting point was determined as 207 °C.
For `CCOC(=O)c1cn(-c2nnc(C)s2)c2nc(Cl)c(F)cc2c1=O`, the melting point was 159 to 162 °C.
As to `COc1ccc2c(c1)CCn1c-2ncc(C(=O)O)c1=O`, the melting point lay in the range of 232 to 234 °C.
Turning to `COC(=O)c1cc(NC(=O)C2CCCCC2)c2cc(Cc3ccc(F)cc3)cnc2c1O`, the melting point was in the range of 250 to 251 °C.
Turning to `CC1(C)OC(C=Cc2ccccn2)=CC1=O`, the melting point fell in the range of 87.5 to 89 °C.
Under `COC(=O)C=C(OC)c1ccccc1OCc1csc(-c2ccc(F)cc2)n1` stands 105 to 108 °C.
Under `CC(CNC(=O)Cc1ccccc1)Oc1ccccc1` (stereo not drawn) stands 94 to 96 °C; under `Nc1ccn(CC2CC2)c(=O)n1`, 264 to 266 °C.
`CCCCn1c(=O)c(NC(=O)Nc2c(C(C)C)cc(N(C)Cc3cccnc3)cc2C(C)C)c(-c2cccc(OC)c2)c2cccnc21` gave a melting point of 155 to 157 °C.
Under `COc1ccccc1N1CCN(CCCNC(=O)c2cccc3c(=O)c(C)c(C4CCC(C)CC4)oc23)CC1` (stereo not drawn) stands 166 °C.
The figure for `CC(C)C(=O)c1cn(-c2c(Cl)cc(C(F)(F)F)cc2Cl)nc1C#N` is 168 to 169 °C; for `COc1cc2cc3c(=O)c(C#N)c[nH]c3cc2cc1OCc1ccccc1` it is more than 300 °C.
Under `NS(=O)(=O)c1cccc(-c2cccc(-c3nc(-c4ccc(F)c(F)c4)cc(C(F)(F)F)n3)c2)c1` stands 211 °C.
On to `O=C(Nc1ccncc1)c1n[nH]c2ccc(-c3cncc4ccccc34)cc12`, for which the melting point is more than 250 °C.
In turn, `CCn1ncc2c(Cl)c3c(nc21)C(=O)c1ccccc1CC3` displayed a melting point of 156 to 159 °C.
Under `CC(C)(C)OC(=O)NN(Cc1ccc(-c2cnccn2)cc1)C[C@H](O)[C@@H](N)Cc1ccccc1` stands 146 to 148 °C; under `COC(=O)c1ccc(S(C)(=O)=O)c(CC#N)c1Cl`, 151 to 155 °C; under `CN(C)C=Nc1ncc(I)c(Cl)n1`, 99 to 100 °C.
Turning to `NC(=O)c1sc2nccc(NC3CCCCC3)c2c1N`, the melting point lay within 244 to 247 °C.
`O=C(NCC1C2(CCCC1(c1ccccc1)c1ccccc1)OCCO2)c1ccccc1` (racemic) yielded a melting point of 162 °C.
Regarding `CCc1nc2c(C)cc(C)nc2n1Cc1ccc(-c2ccccc2-c2c(N)c(=O)c2=O)cc1`, the melting point is 217 °C.
The compound `COc1ccc2c(n1)c(C=C[N+](=O)[O-])c1n2CCCO1` showed a melting point of 248 to 249 °C.
As for `CCCCc1oc2ccccc2c1S(=O)(=O)c1ccc(O)cc1`, the melting point lay in the range of 163 to 165 °C.
The figure for `CCOc1ccc(C(=O)CCC(=O)Nc2cc(OCc3ccccc3)cc(-c3ccccc3)n2)cc1OCC` is 156 to 157 °C.
`Cc1c(NC(=O)c2ccc(CC(=O)C(C)C)cc2)ccc2cc(CN3CCCC3)cnc12` displayed a melting point of 146 to 147 °C.
For the compound `COC(=O)c1cccc(-c2cccc(Oc3ccc(Cl)cc3Cl)n2)c1`, the melting point lay in the range of 112 to 113 °C.
In the case of `O=C(/C=C/c1c[nH]cn1)Oc1ccc([N+](=O)[O-])cc1`, the melting point lay in the range of 220 to 222 °C.
The figure for `CN(C(=O)N1Cc2ncn(Cc3ccccc3)c2CC1C(=O)O)c1ccccc1` (stereo not drawn) is 220 to 222 °C; for `NC(=O)C(OC(=O)c1ccccc1Cl)(C(N)=O)c1ccc(Cl)c(Cl)c1` it is 220 °C.
On to `CCCC1CCC(C2CCc3c4c(c(F)c(F)c3O2)OCCC4)CC1` (stereo not drawn), for which the melting point amounted to 152 °C.
Compound `O=C1NC(=O)C(=Cc2ccc(C(=O)CCc3ccccc3)cn2)S1` yielded a melting point of more than 250 °C.
`CC(C)[C@H](NC(=O)OCc1cccnc1)C(=O)N[C@@H](Cc1ccccc1)[C@@H](O)[C@@H](O)[C@H](Cc1ccccc1)NC(=O)OC(C)(C)C` displayed a melting point of 175 to 178 °C.
Take `CCOC(=O)c1ccc2oc3ncccc3c(=O)c2c1`: the melting point fell in the range of 131 to 132 °C.
Regarding `O=C(O)c1cc2c(s1)CCc1ccccc1-2`, the melting point was 205 to 208 °C.
`O=C(OCCCCl)c1ccc([N+](=O)[O-])cc1[N+](=O)[O-]` returned a melting point of 40 °C.
Consider `CS(=O)(=O)N1Cc2ccccc2C1`, for which the melting point was in the range of 131 to 132 °C.
For the compound `COC(=O)c1ccc(Sc2ccc(O)cc2)cc1`, the melting point lay within 184 to 186 °C.
On to `CC(C)c1cccc(C(C)C)c1NC(=O)CN1CCN(c2cccc(Sc3nc4ccccc4[nH]3)c2)CC1`, for which the melting point lay in the range of 123 to 125 °C.
`CC(C(=O)O)c1ccc2c(c1)CC(C(C)C)C2` (stereo not drawn) displayed a melting point of 90 to 91.5 °C.
The figure for `NNC(=O)c1ccc(OCc2ccccc2)cn1` is 140 to 142 °C; for `C#CC(=O)NCc1ccccc1` it is 165 to 167 °C; for `CC(C(=O)O)c1ccc2c(c1)C(c1ccccc1)=NCC(=O)N2` (stereo not drawn) it is 252 to 255 °C.
The figure for `CCCCCCC1C(=O)NC2(C(O)C3C=CCCC3)C(=O)OC12C` (stereo not drawn) is 157 °C.
As to `COc1ccc(C(=O)Nc2ccccc2)cc1Nc1cc(Cl)cc(Cl)c1`, the melting point lay in the range of 207 to 208 °C.
On to `CCOc1nc(SC)nc(N2CCS(=O)CC2)c1[N+](=O)[O-]`, for which the melting point is 102 to 104 °C.
With `COc1cc(C)nc(NC(=O)NS(=O)(=O)c2ccc(N=[N+]=[N-])cc2)n1`, the melting point was 192 °C.
For `COc1ccc(C2Sc3c(ccc4ccccc34)N(CCN(C)C)C(=O)C2OC)cc1` (stereo not drawn), the melting point is 118 to 120 °C.
Compound `CCCCS(=O)(=O)C1(CCCCN2CCC(N3Cc4ccccc4C3=O)CC2)c2ccccc2-c2ccccc21` gave a melting point of 130 to 132 °C.
`CC(=Nc1ccc2c(c1)C(=O)c1ccc(N=C(C)N3CCC(C)CC3)cc1C2=O)N1CCC(C)CC1` showed a melting point of 200 to 202 °C.
`NC(=O)C1CCc2cc3c(nc21)CCC3` (stereo not drawn) had a melting point of 188 °C.
For `Cn1c(=O)[nH]c(=O)c2c1ncn2CCCCCCO`, the melting point lay within 219 to 220 °C.
Under `C#CCOC(=O)C1=C(N)NC(N)=C(C(=O)OCC#C)C1c1cccc([N+](=O)[O-])c1` stands 170 °C.
Take `CCn1ncc2c(Cl)c3cc(SC)ccc3nc21`: the melting point fell in the range of 120 to 121 °C.
Take `CNCC(=O)NC(=O)N(CCCl)N=O`: the melting point was 86 to 88 °C.
Consider `Cc1cccc(COc2cccc(OCc3ccc4cc(F)ccc4n3)c2)c1C(=O)O`, for which the melting point fell in the range of 153 to 154 °C.
In turn, `COC(=O)c1cccc(C2C(C#N)=C(N)Oc3c2ccc2ncccc32)c1` (stereo not drawn) registered a melting point of 203 to 206 °C.
For the compound `O=C(O)c1ccc(C(F)(F)F)cc1SC1CCCCC1`, the melting point lay within 115 to 116 °C.
In turn, `Fc1ccc(C(c2ccc(F)cc2)N2CCN(CC=C3CCc4ccccc43)CC2)cc1` gave a melting point of 138 to 142 °C.
